Twelve compounds from US11312676B2, “Small molecule stimulators of steroid receptor coactivator proteins and their use in the treatment of cancer” (BAYLOR COLLEGE OF MEDICINE, priority 2014, dated 2022) can be followed below.

Peptide text beside a SMILES is read from it. * marks the point of attachment. Cbz = O=C(OCc1ccccc1)*; CH2F = FC*

Holding throughout (assay type): cell-based
The target of one experiment is T1, SRC-3 (Homo sapiens, UniProt Q9Y6Q9).
T1 construct: expressed in transfected cells; host or cells: HeLa
T1 sequence (Q9Y6Q9 whole entry): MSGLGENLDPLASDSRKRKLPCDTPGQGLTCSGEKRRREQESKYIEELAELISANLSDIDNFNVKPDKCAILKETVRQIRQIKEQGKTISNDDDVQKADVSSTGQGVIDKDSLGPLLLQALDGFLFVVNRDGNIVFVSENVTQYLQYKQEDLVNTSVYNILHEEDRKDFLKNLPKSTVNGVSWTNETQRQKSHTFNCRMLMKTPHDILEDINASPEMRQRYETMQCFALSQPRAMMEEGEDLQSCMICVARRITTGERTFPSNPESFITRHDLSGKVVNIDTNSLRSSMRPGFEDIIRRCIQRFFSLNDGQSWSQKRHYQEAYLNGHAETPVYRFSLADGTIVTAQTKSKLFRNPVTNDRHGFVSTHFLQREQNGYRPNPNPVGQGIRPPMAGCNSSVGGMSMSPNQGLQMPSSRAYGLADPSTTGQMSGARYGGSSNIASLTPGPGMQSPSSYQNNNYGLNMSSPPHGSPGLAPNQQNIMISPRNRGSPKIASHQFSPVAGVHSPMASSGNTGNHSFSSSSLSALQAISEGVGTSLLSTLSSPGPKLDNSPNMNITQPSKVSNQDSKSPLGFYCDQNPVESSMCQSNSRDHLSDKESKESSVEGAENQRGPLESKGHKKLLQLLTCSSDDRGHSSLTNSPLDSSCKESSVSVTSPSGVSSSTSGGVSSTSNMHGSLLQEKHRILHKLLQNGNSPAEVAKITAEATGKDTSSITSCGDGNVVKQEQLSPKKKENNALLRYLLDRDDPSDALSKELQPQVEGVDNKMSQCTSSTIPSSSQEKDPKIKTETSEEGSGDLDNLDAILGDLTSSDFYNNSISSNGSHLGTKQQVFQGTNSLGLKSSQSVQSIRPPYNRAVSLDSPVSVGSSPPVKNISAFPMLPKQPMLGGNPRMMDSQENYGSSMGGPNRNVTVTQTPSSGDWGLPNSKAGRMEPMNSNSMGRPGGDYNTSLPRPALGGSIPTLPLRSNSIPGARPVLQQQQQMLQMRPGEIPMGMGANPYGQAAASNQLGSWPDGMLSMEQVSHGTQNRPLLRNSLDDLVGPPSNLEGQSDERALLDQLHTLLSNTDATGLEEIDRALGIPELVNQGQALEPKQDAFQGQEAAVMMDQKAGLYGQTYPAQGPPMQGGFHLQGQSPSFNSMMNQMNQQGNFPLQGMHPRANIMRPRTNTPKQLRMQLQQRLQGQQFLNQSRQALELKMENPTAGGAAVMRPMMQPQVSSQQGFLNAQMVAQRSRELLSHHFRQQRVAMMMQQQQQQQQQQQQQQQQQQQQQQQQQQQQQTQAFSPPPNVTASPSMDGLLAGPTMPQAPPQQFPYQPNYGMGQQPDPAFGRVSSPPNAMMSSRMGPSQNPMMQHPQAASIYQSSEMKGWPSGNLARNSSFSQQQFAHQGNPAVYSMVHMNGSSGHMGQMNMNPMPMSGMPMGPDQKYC
In words: Gal4 luciferase reporter assay (pBIND-SRC-3 + pG5-LUC) in HeLa cells. The note with it: for effect on activation of SRC-3 by MCB-613: co-treatment with MCB-613, 24 hours; for intrinsic transcriptional activity of SRC-3: 24 hours, additional paraptosis agents. Here is the method:
(§1) The constructs expressing the Gal4 responsive luciferase reporter (pG5-luc), Gal4 DBD fusion with SRC-1, […] (pBIND-SRC-1/-2/-3), MMP2 or MMP13 promoter driven luciferase reporter (MMP2-luc, MMP13-luc) were prepared. Twenty-four hours before transfection, HeLa cells were plated in 24-well dishes. The indicated expression plasmids were transfected into cells using Lipofectamine 2000 according to the manufacturer's instructions.
(§2) After various compound treatments, cells were lysed in luciferase lysis buffer and assayed for luciferase activity using the ONE-Glo luciferase assay system (Promega, Madison, Wis.). All luciferase activities were normalized to protein concentration determined by Bradford assay (Bio-Rad, Hercules, Calif.).
HeLa cells were transfected with a Gal4 responsive luciferase reporter (pG5-luc) and a construct encoding SRC-1, SRC-2 or SRC-3 fused with the DNA binding domain of Gal4 (pBIND-SRC-1, pBIND-SRC-2 or pBIND-SRC-3) were treated with the indicated compounds.
A general note: A reporter such as luciferase makes a cellular process visible.

The next experiment addresses T2, SRC-2 (Homo sapiens, UniProt Q15596).
T2 construct: expressed in transfected cells; host or cells: HeLa
In words: Gal4 luciferase reporter assay (pBIND-SRC-2 + pG5-LUC) in HeLa cells. The note with it: for intrinsic transcriptional activity of SRC-2: 24 hours, additional paraptosis agents. The method, then:
as §1, §2

The target of another experiment is SRC-1 (Homo sapiens, UniProt Q15788). In words: Gal4 luciferase reporter assay (pBIND-SRC-1 + pG5-LUC) in HeLa cells. Further details: expressed in transfected cells; host or cells: HeLa. The note with it: for intrinsic transcriptional activity of SRC-1: 24 hours, additional paraptosis agents. The method, then: as §1, §2
SRC-1, sequence (Q15788 whole entry, the tested form may be a part): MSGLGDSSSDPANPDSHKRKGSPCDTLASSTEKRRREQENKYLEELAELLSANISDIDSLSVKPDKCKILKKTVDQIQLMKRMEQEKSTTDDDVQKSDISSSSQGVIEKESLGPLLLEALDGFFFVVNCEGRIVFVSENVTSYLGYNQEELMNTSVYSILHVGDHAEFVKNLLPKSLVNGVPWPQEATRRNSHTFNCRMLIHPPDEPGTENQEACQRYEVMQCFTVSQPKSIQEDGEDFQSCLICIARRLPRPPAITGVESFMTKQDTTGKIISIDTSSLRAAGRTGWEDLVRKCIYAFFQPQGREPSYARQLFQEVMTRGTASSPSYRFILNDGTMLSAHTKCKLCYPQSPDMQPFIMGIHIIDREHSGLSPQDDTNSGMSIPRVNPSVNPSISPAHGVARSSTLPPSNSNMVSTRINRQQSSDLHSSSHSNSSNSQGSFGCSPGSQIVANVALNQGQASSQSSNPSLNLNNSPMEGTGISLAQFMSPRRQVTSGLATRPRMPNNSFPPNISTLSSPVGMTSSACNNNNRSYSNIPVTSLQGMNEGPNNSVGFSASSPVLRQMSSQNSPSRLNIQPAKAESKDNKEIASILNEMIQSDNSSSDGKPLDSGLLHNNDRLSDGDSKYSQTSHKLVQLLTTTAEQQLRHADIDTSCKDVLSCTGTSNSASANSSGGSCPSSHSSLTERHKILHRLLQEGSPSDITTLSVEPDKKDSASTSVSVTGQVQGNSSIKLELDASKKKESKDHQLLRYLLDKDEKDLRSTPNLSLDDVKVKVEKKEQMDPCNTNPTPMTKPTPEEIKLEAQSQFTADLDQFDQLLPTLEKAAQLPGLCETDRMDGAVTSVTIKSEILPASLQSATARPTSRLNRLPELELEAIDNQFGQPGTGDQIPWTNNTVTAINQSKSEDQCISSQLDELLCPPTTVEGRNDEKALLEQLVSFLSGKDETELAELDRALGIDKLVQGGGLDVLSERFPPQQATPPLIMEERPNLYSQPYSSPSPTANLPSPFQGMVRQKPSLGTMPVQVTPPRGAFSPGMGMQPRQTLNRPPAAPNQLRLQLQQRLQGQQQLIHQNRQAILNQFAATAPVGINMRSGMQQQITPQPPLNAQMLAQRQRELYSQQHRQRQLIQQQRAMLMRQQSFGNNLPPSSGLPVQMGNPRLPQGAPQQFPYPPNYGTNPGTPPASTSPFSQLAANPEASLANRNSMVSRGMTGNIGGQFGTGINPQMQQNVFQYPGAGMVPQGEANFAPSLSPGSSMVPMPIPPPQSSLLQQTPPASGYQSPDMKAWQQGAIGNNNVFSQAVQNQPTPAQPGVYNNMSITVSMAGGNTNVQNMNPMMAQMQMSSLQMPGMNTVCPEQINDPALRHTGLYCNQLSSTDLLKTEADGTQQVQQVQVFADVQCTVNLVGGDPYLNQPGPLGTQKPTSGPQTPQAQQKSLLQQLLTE
For experiment [1], the system named is HeLa cells. In words: MTS cell viability assay, HeLa cells. The note with it: HeLa cells, co-treatment with MCB-613, 24 hours. (Formazan colour is commonly taken as a measure of viable cells.)
Experiment [2] deals with HeLa cells. As to the kind of experiment: Cytoplasmic vacuolization of cancer cells. The settings on record: HeLa cells, co-treatment with MCB-613, 24 hours.
Experiment [3] relates to TM4 Sertoli cells and GBM cancer cells. As to the kind of experiment: CellTiter-Glo viability, TM4 Sertoli cells versus GBM cell lines R0315 and 4687. The note with it: 72 hours, GBM R0315 and 4687 vs TM4 Sertoli. Here is the method: The effects of SYC-851 (Compound 4-8), SYC-852 (Compound 5-1), SYC-853 (Compound 5-4), and SYC-855 (Compound 7-8) on TM4 Sertoli cells and on GBM cancer cells were determined. Cells were plated as monolayer cultures and treated 24 hours later with the indicated concentration of compounds. After 72 hours, cells were harvested and assayed for viability using a CellTiter-Glo assay […]. The results for TM4 Setoli cells and for pediatric glioblastoma multiforme cell lines R0315 and 4687 and are shown in FIGS. 18A, 18B, and 18C, respectively.

Experiment [4] deals with HeLa cells. As to the kind of experiment: Western blot of stress, UPR, autophagy and apoptosis markers in HeLa cells. The settings on record: co-treatment with MCB-613, 24 hours. Here is the method:
For Western blotting, cells were harvested and lysed in lysis buffer (50 mM Tris, pH 8.0, 150 mM NaCl, 10% glycerol, 0.5% NP40, protease and phosphatase inhibitor) and then centrifuged for 15 min at 14000 rpm at 4° C. After total cellular protein concentration was determined by Bradford analysis (Bio-Rad, Hercules, Calif.), protein lysates were loaded onto and resolved by sodium dodecyl sulfate-polyacrylamide gel electrophoresis (SDS-PAGE) and transferred to PVDF membranes (BioRad) which were blocked and incubated with indicated antibodies. For immunoprecipitation, 10 μg of plasmid encoding FLAG-SRC-3 was transfected into HeLa cells with 90% confluence in one 10 cm plate with lipofectamine 2000 (Invitrogen). Twenty-four hours after transfection, the cells were treated with MCB-613 for one hour and lysed with lysis buffer (25 mM Tris-Cl pH7.5, 150 mM NaCl, 5% glycerol, 1 mM EDTA, 1% Triton X-100, protease and phosphatase inhibitor) at 4° C. After a 30-second sonication, the lysate was cleared by centrifugation at 14000 rpm at 4° C. for 15 minutes and was incubated with anti-Flag-M2 agarose affinity gel (Sigma) for four hours. The agarose gel was washed four times with washing buffer (25 mM Tris pH 8.0, 150 mM NaCl, 1 mM EDTA, 1% Triton X-100) and resuspended with SDS loading buffer for Western blotting.
(In general: Immunoblotting shows a protein as a band on a membrane.)

[5] abbreviates: co-treatment with MCB-613, 24 hours.

T2 sequence (Q15596 whole entry): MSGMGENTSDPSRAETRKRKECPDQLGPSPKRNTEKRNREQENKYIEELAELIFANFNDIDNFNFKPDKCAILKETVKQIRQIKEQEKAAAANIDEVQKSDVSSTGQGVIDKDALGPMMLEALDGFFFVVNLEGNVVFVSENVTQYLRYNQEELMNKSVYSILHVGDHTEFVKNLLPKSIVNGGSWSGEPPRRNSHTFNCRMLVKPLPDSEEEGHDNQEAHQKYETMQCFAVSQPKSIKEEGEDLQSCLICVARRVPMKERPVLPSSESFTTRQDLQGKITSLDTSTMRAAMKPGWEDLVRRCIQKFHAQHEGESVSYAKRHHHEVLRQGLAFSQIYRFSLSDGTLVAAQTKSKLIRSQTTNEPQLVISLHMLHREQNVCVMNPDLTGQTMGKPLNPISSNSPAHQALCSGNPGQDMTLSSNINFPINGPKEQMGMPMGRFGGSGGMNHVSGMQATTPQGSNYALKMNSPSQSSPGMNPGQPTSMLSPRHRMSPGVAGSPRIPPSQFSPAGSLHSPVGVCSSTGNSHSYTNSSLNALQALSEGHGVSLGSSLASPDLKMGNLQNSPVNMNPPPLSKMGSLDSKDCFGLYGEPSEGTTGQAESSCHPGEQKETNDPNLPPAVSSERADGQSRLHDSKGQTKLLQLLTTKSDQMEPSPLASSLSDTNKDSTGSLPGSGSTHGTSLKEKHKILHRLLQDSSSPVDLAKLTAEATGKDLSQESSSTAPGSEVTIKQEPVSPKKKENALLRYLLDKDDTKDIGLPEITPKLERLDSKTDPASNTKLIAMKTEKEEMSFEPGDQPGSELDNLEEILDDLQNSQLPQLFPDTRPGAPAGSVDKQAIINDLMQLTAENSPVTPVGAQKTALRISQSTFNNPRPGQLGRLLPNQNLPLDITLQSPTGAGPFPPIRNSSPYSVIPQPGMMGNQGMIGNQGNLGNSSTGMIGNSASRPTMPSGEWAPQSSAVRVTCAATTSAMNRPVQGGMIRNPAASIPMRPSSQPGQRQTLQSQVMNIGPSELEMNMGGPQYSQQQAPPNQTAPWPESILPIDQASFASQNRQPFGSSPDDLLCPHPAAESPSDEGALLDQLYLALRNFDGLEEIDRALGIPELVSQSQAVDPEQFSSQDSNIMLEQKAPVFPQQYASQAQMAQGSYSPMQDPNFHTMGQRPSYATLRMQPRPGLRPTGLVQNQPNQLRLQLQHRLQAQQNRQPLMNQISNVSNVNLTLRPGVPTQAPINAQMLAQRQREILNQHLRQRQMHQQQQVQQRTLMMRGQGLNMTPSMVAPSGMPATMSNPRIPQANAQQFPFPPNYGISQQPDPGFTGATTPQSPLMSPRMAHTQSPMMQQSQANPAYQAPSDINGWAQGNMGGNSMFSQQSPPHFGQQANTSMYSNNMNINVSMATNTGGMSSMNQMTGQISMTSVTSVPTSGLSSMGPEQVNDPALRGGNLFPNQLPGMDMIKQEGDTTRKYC

With `Cn1cnc(N)c2ncnc1-2` [Compound 3-MA, 3-methyladenine], on SRC-3, the “effect on activation of SRC-3 by MCB-613” value was “did not inhibit”.

Take `CCCCC/C=C/C=C1/C(=O)C=C[C@@H]1C/C=C\CCCC(=O)O` [Compound 15d-PGJ2, 15-deoxy-Δ^12,14-prostaglandin J2]: the “intrinsic transcriptional activity of SRC-2” value at SRC-2 is recorded as “robustly enhance”. Moreover, the “intrinsic transcriptional activity of SRC-3” value at SRC-3 is “robustly enhance”. Also, the “intrinsic transcriptional activity of SRC-1” value on SRC-1 was “robustly enhance”.

On to `CC(C)C[C@@H](C=O)NC(=O)[C@H](CC(C)C)NC(=O)[C@H](CC(C)C)NC(=O)OCc1ccccc1` [MG132] (Cbz-Leu-Leu-Leu-aldehyde), for which the “intrinsic transcriptional activity of SRC-2” value on SRC-2 is given as “robustly enhance”. Besides, the “intrinsic transcriptional activity of SRC-3” value at SRC-3 is recorded as “robustly enhance”. The “intrinsic transcriptional activity of SRC-1” value at SRC-1 is reported as “robustly enhance”.

With `CC(=O)N[C@@H](CS)C(=O)O` [N-Acetyl cysteine], on SRC-2 (setting [5]), the “effect on activation of SRC-2 by MCB-613” value was “abrogate”. Further, the “effect on activation of SRC-3 by MCB-613” value at SRC-3 is “abrogate”. For the same compound, in the experiment on HeLa cells [1], the “effect on cell death caused by MCB-613” value is reported as “protected cells from MCB-613 mediated cytotoxicity”. The “effect on vacuolization induced by MCB-613” value with HeLa cells [2] was “blocked”. In addition, the “effect on activation of SRC-1 by MCB-613” value on SRC-1 (setting [5]) is listed as “abrogate”.

On to `CO[C@@H](C(=O)N1Cc2n[nH]c(NC(=O)c3ccc(N4CCN(C)CC4)cc3)c2C1)c1ccccc1` [PHA 739358], for which the “effect on activation of SRC-3 by MCB-613” value at SRC-3 is recorded as “significantly inhibited”.

On to `O=C1C(=Cc2cccnc2)COCC1=Cc1cccnc1` [SYC-851], for which the “toxicity to cancer cells compared with non-cancer cells” value in experiment [3] is recorded as “more toxicity to cancer cells than to non-cancer cells”.

In the case of `CC(C)N1CC(=Cc2cccnc2)C(=O)C(=Cc2cccnc2)C1` [SYC-855], at SRC-3 (Example 6), the “SRC-3 intrinsic transcriptional activity (luciferase)” value is listed as “high intrinsic transcriptional activity”. Moreover, the “toxicity to cancer cells compared with non-cancer cells” value in experiment [3] was “more toxicity to cancer cells than to non-cancer cells”.

As for `C[C@]12CC[C@H](O)C[C@H]1CC[C@@H]1[C@@H]2CC[C@]2(C)[C@@H](c3ccc(=O)oc3)CC[C@]12O` [bufalin, reference compound], in the experiment on HeLa cells [2], the “effect on vacuolization induced by MCB-613” value is on record as “effectively inhibited”. Also, in the experiment on HeLa cells [4], the “effect on induction of ER stress (ATF4) by MCB-613” value is recorded as “completely reversed”.

Consider `CCN(CC)CCCC(C)Nc1ccnc2cc(Cl)ccc12` (stereo not shown) [chloroquine], for which the “effect on activation of SRC-3 by MCB-613” value at SRC-3 is reported as “did not inhibit”.

Regarding `COc1cc(/C=C/C(=O)CC(=O)/C=C/c2ccc(O)c(OC)c2)ccc1O` [curcumin], the “intrinsic transcriptional activity of SRC-2” value at SRC-2 is “robustly enhance”. For the same compound, the “intrinsic transcriptional activity of SRC-3” value at SRC-3 was “robustly enhance”. In addition, on SRC-1, the “intrinsic transcriptional activity of SRC-1” value is recorded as “robustly enhance”.

For the compound `C[C@@H]1C[C@@H]([C@H](O)CC2CC(=O)NC(=O)C2)C(=O)[C@@H](C)C1` [cycloheximide], the “effect on cell death caused by MCB-613” value in the experiment on HeLa cells [1] is reported as “protected cells from MCB-613 mediated cytotoxicity”. Moreover, in the experiment on HeLa cells [2], the “effect on vacuolization induced by MCB-613” value was “blocked”.

As to `COC(=O)C[C@H](NC(=O)[C@H](C)NC(=O)[C@@H](NC(=O)OCc1ccccc1)C(C)C)C(=O)CF` [z-VAD-fmk] (Cbz-Val-Ala-Asp(OMe)-CH2F), the “effect on activation of SRC-3 by MCB-613” value at SRC-3 is “did not inhibit”.
